Laboratory results taken from PubChem BioAssay (NCI).
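Five compound concentrations were applied to cells in 96-well plates for 48 hours; endpoints were derived by simple linear interpolation of the resulting dose-response curve. Abbreviation: GI50, concentration required for 50% inhibition of growth. Definition used: TGI = concentration required for complete inhibition of growth.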

Assays:
Assay in all cases: NCI anticancer screen, dose series, 48 h
[1] = tested on: HT29 colon
[2] = tested on: MDA-MB-231 breast
[3] = tested on: HCT-116 colon
[4] = tested on: HS 578T breast
[5] = tested on: IGROV1 ovarian
[6] = tested on: SNB-75 CNS
[7] = tested on: SW-620 colon
[8] = tested on: RXF 393 renal
[9] = tested on: MOLT-4 leukemia
[10] = tested on: NCI-H226 lung

SMILES	GI50 [1]	TGI [1]	GI50 [2]	TGI [2]	GI50 [3]	TGI [3]	GI50 [4]	TGI [4]	GI50 [5]	TGI [5]	GI50 [6]	TGI [6]	GI50 [7]	TGI [7]	GI50 [8]	TGI [8]	GI50 [9]	TGI [9]	GI50 [10]	TGI [10]
CS(=O)(=O)CCn1c(=O)c(Oc2ccc(F)cc2F)cc2cnc(NC3CCOCC3)nc21	> 25 µM	> 25 µM	> 25 µM	> 25 µM	> 25 µM	> 25 µM	> 25 µM	> 25 µM	> 25 µM	> 25 µM	> 25 µM	> 25 µM	> 25 µM	> 25 µM	> 25 µM	> 25 µM	> 25 µM	> 25 µM	> 25 µM	> 25 µM
COC(=O)OCc1ccc2c(c1)C(=O)c1c-2n(CCCBr)c(=O)c2cc([N+](=O)[O-])ccc12	> 100 µM	> 100 µM	52.7 µM	> 100 µM	81.2 µM	> 100 µM	31 µM	> 100 µM	54.3 µM	> 100 µM	14.9 µM	34.4 µM	> 100 µM	> 100 µM	0.16 µM	8.45 µM	31.6 µM	> 100 µM	> 100 µM	> 100 µM
C[C@@H](Oc1ccc2[nH]nc(/C=C/c3cnn(CCO)c3)c2c1)c1c(Cl)cncc1Cl	0.171 µM	0.681 µM	0.357 µM	> 26.5 µM	0.082 µM	> 100 µM	0.106 µM	0.681 µM	0.135 µM	5.04 µM	0.159 µM	0.561 µM	0.0574 µM	> 100 µM	0.0288 µM	0.267 µM	0.488 µM	3.34 µM	0.0304 µM	
COc1ccc(/C=C(/C)[N+](=O)[O-])cc1		11.9 µM		9.89 µM		3.14 µM		27.3 µM		6.2 µM		3.4 µM		> 20.6 µM		3.16 µM		5.34 µM		39.7 µM
CCOC(=O)N[C@H]1CCc2c(Br)c(OC)c(OC)c(OC)c2-c2ccc(SC)c(=O)cc21	< 0.01 µM	> 34.5 µM	< 0.01 µM	5.17 µM	< 0.01 µM	11.8 µM	< 0.01 µM	37.3 µM	0.0189 µM	16.2 µM	< 0.01 µM	16.1 µM	< 0.01 µM	16.7 µM	< 0.01 µM	13.8 µM	< 0.0108 µM	> 45.3 µM	< 0.0165 µM	13.9 µM
CN1CCN(c2ccc(NC3=C(Cl)C(=O)c4ncccc4C3=O)cc2C#N)CC1	2.16 µM	5.14 µM	1.57 µM	4.17 µM	1.72 µM	3.36 µM	2.14 µM	5.47 µM	1.34 µM	2.82 µM	11.7 µM	24.8 µM	1.49 µM	3.62 µM	1.4 µM	2.73 µM	1.04 µM	5.31 µM	16.8 µM	36.3 µM
CN1CCN(CCNc2ccc(CO)c3sc4ccccc4c(=O)c23)CC1		7.86 µM	3.99 µM	15.2 µM		8.24 µM	10.7 µM	31.8 µM		27.2 µM		14.5 µM		14.1 µM	0.0726 µM	1.82 µM		12.3 µM		13 µM
O=C(O)c1cc(Cc2ccc(O)c(C(=O)O)c2)ccc1O (tested in a mixture with another compound)	2.98 µM	10.4 µM	3.25 µM	12.2 µM	3.67 µM	14.2 µM	3.78 µM	40.4 µM	4.72 µM	20.6 µM	3.32 µM	22.4 µM	3.55 µM	23.5 µM	0.25 µM	1.37 µM	2.66 µM	> 100 µM	7.29 µM	23.3 µM
COc1ccc(C(=O)COc2cccc(/C=C3\CSc4ccc(Cl)cc4C3=O)c2)cc1	3.32 µM	11.4 µM	14.2 µM	64.3 µM	1.94 µM	4.3 µM	3.55 µM	31.7 µM		11.6 µM	16.5 µM	37.2 µM	1.82 µM	4.1 µM	1.14 µM	7.1 µM	2.25 µM	5.53 µM	14.4 µM	62.8 µM
CO[C@@]12C[C@H]3[C@@H]([C@@H](O)[C@@H](OC(=O)/C=C/c4ccccc4)[C@@]4(O)C(C)(C)CCC[C@]34C)[C@@H](C)C1=CC(=O)O2	4.6 µM	26.5 µM	0.585 µM	4.6 µM	8.8 µM	> 100 µM	7.8 µM	29.3 µM	29.5 µM	> 100 µM	0.382 µM	2.46 µM	12.2 µM	31.5 µM	1.33 µM	7.93 µM	> 100 µM	> 100 µM	4.76 µM	18.8 µM
C[C@]12C3CC[C@@]4(CO)C[C@]3(CCC1[C@](C)(C(=O)O)CC[C@@H]2O)CC4=O (stereo partly specified)	> 100 µM	> 100 µM	> 100 µM	> 100 µM	> 100 µM	> 100 µM	> 100 µM	> 100 µM	> 100 µM	> 100 µM	> 100 µM	> 100 µM	> 100 µM	> 100 µM	> 100 µM	> 100 µM	> 100 µM	> 100 µM	> 100 µM	> 100 µM
COc1ccc(-c2nnc(N3CCN(C(=O)CN4CCN(c5ccc(Cl)cc5)CC4)CC3)nc2-c2ccc(OC)cc2)cc1	4.74 µM	> 100 µM	45.9 µM	> 100 µM	5.99 µM	> 100 µM	23.5 µM	> 100 µM	29.4 µM	> 100 µM	19.5 µM	65.3 µM	57.9 µM	> 100 µM	18.9 µM	> 100 µM	6.53 µM	> 100 µM	46.8 µM	> 100 µM
NC(Cc1ccnnc1)C(=O)O (stereo unspecified)		> 100 µM		> 100 µM		> 100 µM		> 100 µM		> 100 µM		> 100 µM		> 100 µM		> 100 µM		> 100 µM		> 100 µM
C(=C\c1nccc2c1[nH]c1ccccc12)/c1ccccc1	3.07 µM	11.9 µM	1.76 µM	8.02 µM	2.71 µM	10.7 µM	2.35 µM	9.34 µM	0.664 µM	23.6 µM	2.76 µM	21.9 µM	2.39 µM	18.1 µM	2.06 µM	4.66 µM	2.84 µM	22.3 µM	4.09 µM	> 100 µM
